This note sets out measurements from patent US8222219B2, “Glucopyranoside compound” (Mitsubishi Tanabe Pharma Corporation, priority 2003, dated 2012).

The structures appear in SMILES notation. Read-outs that look alike come from different tables or passages of the source.

One experiment deals with T1, human SGLT2 (Homo sapiens, UniProt P31639).
T1 construct: expressed in transfected cells; host or cells: CHOK1 (CHO-K1) cells, kept under Geneticin selection
T1 sequence (P31639 1-672): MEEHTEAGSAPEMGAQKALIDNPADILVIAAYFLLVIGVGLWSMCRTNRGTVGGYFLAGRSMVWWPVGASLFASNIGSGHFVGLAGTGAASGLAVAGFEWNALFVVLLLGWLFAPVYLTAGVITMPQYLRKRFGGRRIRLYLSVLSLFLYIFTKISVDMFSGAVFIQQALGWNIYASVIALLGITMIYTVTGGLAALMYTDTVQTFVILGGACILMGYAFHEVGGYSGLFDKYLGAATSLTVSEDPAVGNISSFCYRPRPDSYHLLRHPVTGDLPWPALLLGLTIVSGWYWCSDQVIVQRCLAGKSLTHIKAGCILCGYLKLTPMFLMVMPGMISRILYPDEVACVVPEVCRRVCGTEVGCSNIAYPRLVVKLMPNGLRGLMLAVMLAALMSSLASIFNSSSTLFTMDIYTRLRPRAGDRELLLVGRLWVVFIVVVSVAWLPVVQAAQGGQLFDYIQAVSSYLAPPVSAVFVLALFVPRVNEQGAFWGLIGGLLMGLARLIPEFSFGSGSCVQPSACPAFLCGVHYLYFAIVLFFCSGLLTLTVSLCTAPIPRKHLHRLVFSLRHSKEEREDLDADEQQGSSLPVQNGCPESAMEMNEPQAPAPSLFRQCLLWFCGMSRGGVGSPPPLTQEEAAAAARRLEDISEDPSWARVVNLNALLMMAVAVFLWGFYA
Kind of experiment: Assay for SGLT2 inhibition (14C-AMG uptake in CHOK1 cells expressing human SGLT2). Type of experiment: cell-based. As to the method: 1. Assay for SGLT2 Inhibition
Compounds described in the above examples were used for the SGLT2 inhibition assay.
CHOK1 cells expressing human SGLT2 were seeded in 24-well plates at a density of 400,000 cells/well in F-12 nutrient mixture (Ham's F-12) containing 10% fetal bovine serum, 400 μg/ml Geneticin, 50 units/ml sodium penicillin G (Gibco-BRL) and 50 μg/ml streptomycin sulfate. […] Test compounds were dissolved in DMSO. The final concentration of DMSO was 0.5%. The transport reaction was initiated by addition of 50 μl [^14C]-methyl-α-D-glucopyranoside (^14C-AMG) solution (final concentration, 0.5 mM). After incubation for 2 hours at 37° C., the uptake was stopped by aspiration of the incubation mixture, the cells were washed three times with ice-cold PBS. Then, cells were solubilized with 0.3 N NaOH and aliquots were taken for determination of radioactivity by a liquid scintillation counter. Nonspecific AMG uptake was defined as that which occurred in the presence of 100 μM of phlorizin, a specific inhibitor of sodium-dependent glucose cotransporter. Specific uptake was normalized for the protein concentrations measured by the method of Bradford.

A further experiment has as its system Sprague-Dawley (SD) rats. Kind of experiment: Urinary glucose excretion test in rats. Type of experiment: in vivo, rat. Conditions: male SD rats, 30 mg/kg oral gavage, urine collected for 24 hours; daily amount of glucose excreted per individual. As to the method: 2. Urinary Glucose Excretion Test in Rats Test Compounds:
Compounds described in the above examples were used for the urinary glucose excretion test in rats.
6-week-old male Sprague-Dawley (SD) rats were housed in individual metabolic cages with free access to food and water from 2 days prior to the experiment. On the morning of the experiment, rats were administered vehicle (0.2% carboxymethyl cellulose solution containing 0.2% Tween80) or test compounds (30 mg/kg) by oral gavage at a volume of 10 ml/kg. Then, urine of the rat was collected for 24 hours, and the urine volume was measured. Subsequently, the glucose concentration in urine was quantified using the enzymatic assay kit and the daily amount of glucose excreted in urine per individual was calculated.

Setting [1] is: CHOK1 cells expressing human SGLT2, 14C-AMG uptake 0.5 mM, 2 hours at 37° C., read-out: IC50.

The term IC50 denotes the concentration needed to halve the response being measured. On to `Cc1ccc([C@@H]2O[C@H](CO)[C@@H](O)[C@H](O)[C@H]2O)cc1Cc1ccc(-c2cccc(F)n2)s1` [Example 146], for which, at human SGLT2 (setting [1]), the IC50 was 2.2 nM. For the same molecule, the Urinary glucose result in the experiment on Sprague-Dawley (SD) rats is “A (A≧2000 mg)”.

`OC[C@H]1O[C@@H](c2ccc(Cl)c(Cc3ccc(-c4cccc(C(F)F)c4)s3)c2)[C@H](O)[C@@H](O)[C@@H]1O` [Example 178, 1-(β-D-glucopyranosyl)-4-chloro-3-(5-(3-difluoromethylphenyl)-2-thienylmethyl)benzene]: the IC50 on human SGLT2 (setting [1]) amounted to 5.1 nM. Also, the Urinary glucose result in the experiment on Sprague-Dawley (SD) rats is listed as “B (2000 mg>B≧1000 mg)”.

For the molecule `Cc1ccc([C@@H]2O[C@H](CO)[C@@H](O)[C@H](O)[C@H]2O)cc1Cc1ccc(-c2ccc(C#N)cc2)s1` [Example 151], the IC50 on human SGLT2 (setting [1]) came to 2.5 nM. Also, the Urinary glucose result with Sprague-Dawley (SD) rats was “B (2000 mg>B≧1000 mg)”. Turning to `OC[C@H]1O[C@@H](c2ccc(Cl)c(Cc3ccc(-c4cccc(F)n4)s3)c2)[C@H](O)[C@@H](O)[C@@H]1O` [Example 156], the IC50 on human SGLT2 (setting [1]) was 1.1 nM. The Urinary glucose result in the experiment on Sprague-Dawley (SD) rats is “A (A≧2000 mg)”. For the molecule `CCOc1cccc(-c2ccc(Cc3cc([C@@H]4O[C@H](CO)[C@@H](O)[C@H](O)[C@H]4O)ccc3F)s2)c1` [Example 79], the IC50 on human SGLT2 (setting [1]) worked out at 9 nM.

In the case of `Cc1ccc([C@@H]2O[C@H](CO)[C@@H](O)[C@H](O)[C@H]2O)cc1Cc1ccc(-c2ccnc(F)c2)s1` [Example 217], at human SGLT2 (setting [1]), the concentration for half-maximal inhibition (IC50) turned out to be 3.6 nM. On to `COc1c(Cc2ccc(-c3cccc(F)n3)s2)cc([C@@H]2O[C@H](CO)[C@@H](O)[C@H](O)[C@H]2O)c2ccccc12` [Example 268], for which, at human SGLT2 (setting [1]), the IC50 amounted to 2.5 nM.

For `Cc1ccc([C@@H]2O[C@H](CO)[C@@H](O)[C@H](O)[C@H]2O)cc1Cc1ccc(-n2cccn2)s1` [Example 227], on human SGLT2 (setting [1]), the IC50 was determined as 3.2 nM.

For the molecule `Cc1nc(-c2ccc(Cc3cc([C@@H]4O[C@H](CO)[C@@H](O)[C@H](O)[C@H]4O)ccc3Cl)s2)cs1` [Example 252], the IC50 at human SGLT2 (setting [1]) was found to be 1.4 nM. On the same count and under the same terms, to `Cc1ccc([C@@H]2O[C@H](CO)[C@@H](O)[C@H](O)[C@H]2O)cc1Cc1ccc(-c2cccc(C(F)F)c2)s1` [Example 130, 1-(β-D-glucopyranosyl)-3-(5-(3-difluoromethylphenyl)-2-thienylmethyl)-4-methylbenzene] belongs 2.4 nM; to `Cc1ccc([C@@H]2O[C@H](CO)[C@@H](O)[C@H](O)[C@H]2O)cc1Cc1ccc(-c2ncco2)s1` [Example 241], 1 nM.

Turning to `Cc1ccc([C@@H]2O[C@H](CO)[C@@H](O)[C@H](O)[C@H]2O)cc1Cc1ccc(-c2cccc(OC(F)F)c2)s1` [Example 222], at human SGLT2 (setting [1]), the IC50 came to 1.8 nM. On to `OC[C@H]1O[C@@H](c2ccc(Cl)c(Cc3ccc(-c4ncco4)s3)c2)[C@H](O)[C@@H](O)[C@@H]1O` [Example 240], for which the IC50 on human SGLT2 (setting [1]) was found to be 1.2 nM. Consider `O=C(O)c1ccc(-c2ccc(Cc3cc([C@@H]4O[C@H](CO)[C@@H](O)[C@H](O)[C@H]4O)ccc3Cl)s2)cc1` [Example 192, 1-(β-D-glucopyranosyl)-3-(5-(4-carboxyphenyl)-2-thienylmethyl)-4-chlorobenzene], for which the IC50 on human SGLT2 (setting [1]) stood at 7.4 nM. Consider `OC[C@H]1O[C@@H](c2ccc(Cl)c(Cc3ccc(-c4ccnc(F)c4)s3)c2)[C@H](O)[C@@H](O)[C@@H]1O` [Example 216], for which the IC50 at human SGLT2 (setting [1]) came out at 3.3 nM.

With `NC(=O)c1ccc(-c2ccc(Cc3cc([C@@H]4O[C@H](CO)[C@@H](O)[C@H](O)[C@H]4O)ccc3Cl)s2)cn1` [Example 188, 1-(β-D-glucopyranosyl)-3-(5-(2-carbamoyl-5-pyridyl)-2-thienylmethyl)-4-chlorobenzene], the IC50 on human SGLT2 (setting [1]) was found to be 1.6 nM.

With `NC(=O)c1ccc(-c2ccc(Cc3cc([C@@H]4O[C@H](CO)[C@@H](O)[C@H](O)[C@H]4O)ccc3Cl)s2)cc1` [Example 193, 1-(β-D-glucopyranosyl)-3-(5-(4-carbamoylphenyl)-2-thienylmethyl)-4-chlorobenzene], on human SGLT2 (setting [1]), the IC50 is 0.9 nM.

In the case of `COc1c(Cc2ccc(Cl)s2)cc([C@@H]2O[C@H](CO)[C@@H](O)[C@H](O)[C@H]2O)c2ccccc12` [Example 250, 1-(β-D-Glucopyranosyl)-3-(5-chloro-2-thienylmethyl)-4-methoxynaphthalene], at human SGLT2 (setting [1]), the IC50 is 4.2 nM. As to `Cc1ccc([C@@H]2O[C@H](CO)[C@@H](O)[C@H](O)[C@H]2O)cc1Cc1cc2ccc(OC(F)F)cc2s1` [Example 224], the IC50 on human SGLT2 (setting [1]) is 5.9 nM. As to `COc1cccc(-c2ccc(Cc3cc([C@@H]4O[C@H](CO)[C@@H](O)[C@H](O)[C@H]4O)ccc3C)s2)c1` [Example 90], the IC50 on human SGLT2 (setting [1]) amounted to 2 nM.

As to `Cc1csc(-c2ccc(Cc3cc([C@@H]4O[C@H](CO)[C@@H](O)[C@H](O)[C@H]4O)ccc3Cl)s2)n1` [Example 244], the IC50 at human SGLT2 (setting [1]) is 1.2 nM. `Cc1ccc([C@@H]2O[C@H](CO)[C@@H](O)[C@H](O)[C@H]2O)cc1Cc1ccc(-c2ccc(F)cc2)s1` [Example 84]: at human SGLT2, the IC50 came out at 2.2 nM. As to `O=Cc1ccc(-c2ccc(Cc3cc([C@@H]4O[C@H](CO)[C@@H](O)[C@H](O)[C@H]4O)ccc3Cl)s2)cc1` [Example 249, 1-(β-D-Glucopyranosyl)-4-chloro-3-(5-(4-formylphenyl)-2-thienylmethyl)benzene], the IC50 at human SGLT2 (setting [1]) worked out at 4.3 nM.

On to `OC[C@H]1O[C@@H](n2cc(Cc3cc4ccccc4s3)c3ccccc32)[C@H](O)[C@@H](O)[C@@H]1O` [Example 195, 1-(β-D-glucopyranosyl)-3-(benzo[b]thiophen-2-ylmethyl)indole], for which the Urinary glucose entry in the experiment on Sprague-Dawley (SD) rats is on record as “B (2000 mg>B≧1000 mg)”. As for `Cc1ccc([C@@H]2O[C@H](CO)[C@@H](O)[C@H](O)[C@H]2O)cc1Cc1ccc(-c2ccc(C(F)F)cc2)s1` [Example 176, 1-(β-D-glucopyranosyl)-3-(5-(4-difluoromethylphenyl)-2-thienylmethyl)-4-methylbenzene], on human SGLT2 (setting [1]), the IC50 came out at 7.7 nM.

Regarding `OC[C@H]1O[C@@H](c2ccc(Cl)c(Cc3ccc(-c4ccc(C(F)F)cc4)s3)c2)[C@H](O)[C@@H](O)[C@@H]1O` [Example 179, 1-(β-D-glucopyranosyl)-4-chloro-3-(5-(4-difluoromethylphenyl)-2-thienylmethyl)benzene], the concentration for half-maximal inhibition (IC50) at human SGLT2 (setting [1]) is 9.8 nM. With `COc1c(Cc2ccc(-c3cccc(C#N)c3)s2)cc([C@@H]2O[C@H](CO)[C@@H](O)[C@H](O)[C@H]2O)c2ccccc12` [Example 267], the IC50 on human SGLT2 (setting [1]) worked out at 1.5 nM. Regarding `N#Cc1ccc(-c2ccc(Cc3cc([C@@H]4O[C@H](CO)[C@@H](O)[C@H](O)[C@H]4O)ccc3Cl)s2)cn1` [Example 187, 1-(β-D-glucopyranosyl)-4-chloro-3-(5-(2-cyano-5-pyridyl)-2-thienylmethyl)benzene], the IC50 on human SGLT2 (setting [1]) is 4.3 nM. Consider `COc1ccc2cc(Cc3cc([C@@H]4O[C@H](CO)[C@@H](O)[C@H](O)[C@H]4O)ccc3C)sc2c1` [Example 238], for which the half-inhibitory concentration (IC50) on human SGLT2 (setting [1]) was 1.6 nM.

Turning to `Cc1ccc([C@@H]2O[C@H](CO)[C@@H](O)[C@H](O)[C@H]2O)cc1Cc1cc2ccc(OCCF)cc2s1` [Example 235], the IC50 on human SGLT2 (setting [1]) stood at 2.6 nM.

As for `COc1c(Cc2ccc(-c3ccccc3)s2)cc([C@@H]2O[C@H](CO)[C@@H](O)[C@H](O)[C@H]2O)c2ccccc12` [Example 265, 1-(β-D-glucopyranosyl)-3-(5-phenyl-2-thienylmethyl)-4-methoxynaphthalene], the 50% inhibitory concentration (IC50) at human SGLT2 (setting [1]) amounted to 3.4 nM.
